Laboratory results taken from patent US20240140949A1, “ANTI-CANCER PHARMACEUTICAL COMPOSITION FOR TARGETING HEAT SHOCK PROTEIN 70, CONTAINING INDOLOQUINAZOLIDINE ALKALOID” (SEOUL NATIONAL UNIVERSITY R & DB FOUNDATION, priority 2021, published 2024).

Legend:
[1] = test system: tumors derived from lung cancer patients; experiment: Lung cancer patient-derived tumor xenograft growth in NOD/SCID mice; assay type: in vivo, mouse; details: 20 mg/kg orally six times a week, vs control group (FIG. 7)
Protocol: H460 cells (5×10^6 cells/spot) or lung cancer patient-derived tumors were implanted into the flank of 6-week-old NOD/SCID mice, or LLC-Luc cells (5×10^5 cells/spot) were implanted into the flank of 8-week-old C57BL/6 mice to form tumors. When the tumor volume reached 50-100 mm^3, the mice were divided into control and experimental groups (with at least 6 mice assigned to each group), and the control group was administered with vehicle (10% DMSO and 40% PEG400 solution prepared in sterile distilled water), while the experimental group was administered with EV507 (20 mg/kg) six times a week orally. The major and minor axes of the tumor were measured, and the tumor size was measured at least 3-4 times a week, and the body weight was measured at least once a week to evaluate the toxicity of the drug. Also, the survival of C57BL/6 mice implanted with LLC-Luc cells was monitored to determine the survival curve. The tumor volume was calculated as (width)^2× length×0.5.

[2] = target: T1, Hsp70 protein (full length, N-terminal domain) (Homo sapiens, UniProt P0DMV8); experiment: Drug affinity responsive target stability (DARTS); assay type: binding; details: up to 10 μM, proteinase K (FIG. 6)
T1 construct: 35 μg of Hsp70 full length, Hsp70 N-terminal, Hsp70 C-terminal proteins were treated with vehicle (DMSO)
Protocol: 35 μg of Hsp70 full length, Hsp70 N-terminal, Hsp70 C-terminal proteins were treated with vehicle (DMSO) or up to 10 μM of EV507 (final DMSO concentration: 1%) at 4° C. for 30 minutes, followed by a treatment with proteinase K (proteinase K:protein=1:100) at room temperature for 15 minutes. The reaction was terminated by adding a 5×SDS-PAGE sample buffer and boiling at 95° C. for 5 minutes, after which electrophoresis was performed with 8% SDS-PAGE. The proteins were transferred to a PVDF membrane, and the Western blot analysis method described above was performed.

[3] = test system: lung cancer cells; experiment: Anchorage-independent (soft agar) colony formation; assay type: cell-based; details: soft agar (FIG. 20)
Protocol: Before the experiment, a 1% agar solution made with low-melting agar was placed in a 24-well plate and hardened at room temperature to create a bottom agar. The cells were diluted with medium to seed 2×10^3 cells per well in a 24-well plate. Then, it was mixed with a 1% agar solution to create a final 0.4% agar solution, which was then solidified at room temperature in the plate containing the bottom agar. Medium containing the drug was added on top of the cells mixed in the agar and cultured for 1-3 weeks at 37° C. in a 5% CO2 condition, after which the formed colonies were stained with an MTT solution of 250-500 μg/mL and counted. The colony formation inhibitory effect of the drug was calculated by expressing the change in colony numbers in the drug-treated group compared to the vehicle (DMSO) treated control group as a percentage.

[4] = test system: cancer cells derived from various origins; experiment: Cell viability (MTT or crystal violet assay) in cancer cell lines of various origins; assay type: cell-based, human; details: various concentrations, 3 days, cancer cells of various origins (FIG. 2)
Source text: Human lung cancer cell lines (H1299, H460, A549, H226B, and PC9), breast cancer cell line (MDA-MB-231), liver cancer cell line (Hep3B), kidney cancer cell line (786-0), prostate cancer cell lines (DU145 and PC-3), and mouse lung cancer cell line (Lewis Lung Carcinoma, LLC) were purchased from ATCC (American Type Culture Collection) or obtained from Dr. John V. Heymach of MD Anderson Cancer Center, USA. The human head and neck cancer cell line (UMSCC38) was obtained from Dr. Jeffrey N. Myers (MD Anderson Cancer Center, USA). […]
The cancer cell lines were seeded in a 96-well plate at a density of 2×10^3 cells per well and cultured for 24 hours to allow the cells to attach. The cells were then treated with diluted drugs in media for 3 days and cell viability was assessed using MTT assay or crystal violet (CB) assay. For the MTT assay, MTT solution dissolved in PBS was added to achieve a final concentration of 500 μg/mL and incubated for 2-4 hours, after which the medium was removed and the formed formazan was dissolved in 100% DMSO, followed by measuring the absorbance at 570 nm. For the CB assay, the cultured cells were fixed with 100% methanol, stained with a 0.025% crystal violet solution, dissolved in 1% SDS solution, and the absorbance was measured at 570 nm. […]

T1 sequence (P0DMV8 2-641): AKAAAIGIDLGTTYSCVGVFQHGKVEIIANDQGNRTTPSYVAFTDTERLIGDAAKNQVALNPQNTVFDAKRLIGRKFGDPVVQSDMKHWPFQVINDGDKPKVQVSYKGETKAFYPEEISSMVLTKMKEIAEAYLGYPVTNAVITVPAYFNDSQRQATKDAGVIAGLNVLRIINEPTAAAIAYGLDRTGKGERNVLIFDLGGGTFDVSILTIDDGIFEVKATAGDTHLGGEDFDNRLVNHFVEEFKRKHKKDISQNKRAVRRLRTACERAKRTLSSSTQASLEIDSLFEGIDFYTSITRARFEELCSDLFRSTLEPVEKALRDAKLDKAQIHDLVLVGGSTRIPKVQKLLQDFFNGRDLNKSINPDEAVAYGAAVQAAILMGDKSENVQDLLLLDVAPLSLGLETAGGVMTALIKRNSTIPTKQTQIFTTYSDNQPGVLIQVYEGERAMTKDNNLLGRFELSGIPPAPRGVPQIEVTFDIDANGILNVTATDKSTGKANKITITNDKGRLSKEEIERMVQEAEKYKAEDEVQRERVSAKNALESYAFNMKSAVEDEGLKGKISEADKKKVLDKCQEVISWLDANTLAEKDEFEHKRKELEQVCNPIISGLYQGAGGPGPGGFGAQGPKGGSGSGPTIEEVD

C=CCN1c2ccccc2C(=O)N2CCc3c([nH]c4ccc(O)cc34)C21 (stereo not shown) [EV507]
tumor growth [1]: significantly inhibited
binding to Hsp70 protein, particularly the N-terminal domain [2]: binds
anchorage-independent colony formation [3]: effectively inhibited
anti-cancer survival inhibition efficacy [4]: concentration-dependent anti-cancer survival inhibition efficacy
